Test results as given in patent US6916471B2, “Red blood cells loaded with S-nitrosothiol and uses therefor” (Duke University, priority 1995, dated 2005).

Key:
rabbit aortic ring [1] = assay: Rabbit aortic ring bioassay of CYSNO-treated blood with or without glutathione; settings: 100 μM
Experimental: NO-loaded red blood cells were produced by incubating whole human blood in a solution comprising S-nitrosocysteine (CYSNO) at a molar ratio of 1:100 CYSNO:hemoglobin for 5 minutes at room temperature. The bioactivity of the treated blood was tested in a rabbit aortic ring bioassay, in the presence (+GSH) or absence (−GSH) of 100 μM glutathione.

rabbit aortic ring [2] = assay: Rabbit aortic ring perfused with blood of PPH patient after ethyl nitrite; settings: 1% oxygen
Description: The downward deflection on the plot indicates a dilation of the blood vessel, which for the “NO” blood, occurred for approximately 30 seconds.

[3] = system: patient with primary pulmonary hypertension; assay: Inhaled ethyl nitrite in patients with primary pulmonary hypertension, red blood cell NO; format: in vivo, human; settings: PPH patients
Experimental: A patient with primary pulmonary hypertension, with blood having starting values for SNO-hemoglobin, iron nitrosylhemoglobin and total NO/hemoglobin molar ratio as shown in the left bar of FIG. 15, was given an NO-donating drug by inhalation. Ethyl nitrite was diluted in ethanol. Oxygen carrier gas was passed though the ethyl nitrite solution and delivered to the patient at 10 liters/min. After 10 minutes, blood was withdrawn and analyzed by photolysis chemoluminescence. Results are shown in the right bar of FIG. 15, for the patient's blood after treatment. SNO-Hb and total Hb-bound NO levels were depressed in the patient relative to normal controls, but rose during inhalation of ethyl nitrite gas. The experiment was repeated for other patients (n=5).

Sprague-Dawley rat = assay: Mean arterial pressure after femoral vein injection of loaded red blood cells; format: in vivo; settings: 50 mg/kg
Description: Systemic administration of cell-free Hb results in hypertensive responses which have been attributed to NO scavenging by the heme (Vogel, W. M., et al., Am. J. Physiol. 251:H413-H420 (1986); Olsen, S. B., et al., Circulation 93:329-332 (1996)). To determine if SNO-Hb is free of this adverse affect, and to explore if in vitro mechanisms of NO release extend to the in vivo circumstance, we compared responses to Hb and SNO-Hb infused as a bolus into the femoral vein of anesthetized rats. […] Thus, the profiles of these compounds in vivo closely resemble those seen in vitro (FIG. 4A). […] These changes in mean blood pressure of ˜10% are on the order of those that differentiate normotension from hypertension in man, and in the therapeutic range of some antihypertensive regimens. […] The bioactivity of SNO-Hb in blood, where S—NO/heme stoichiometries approach 1:50,000, is a dramatic illustration of the resistence of this NO-related activity to Hb(Fe) inactivation. […]
Rats were anesthetized by intraperitoneal injection of pentobarbital and the femoral arteries and veins accessed by local cut down. The artery was then cannulated and the blood pressure monitored continuously using a Viggo Spectramed pressure transducer attached to a Gould recorder. […]

[4] = Endogenous SNO-Hb and Hb(FeII)NO in blood by photolysis-chemiluminescence; format: in vivo, rat; settings: 45 minutes after infusion, 50 mg/kg
Description: To determine if SNO-Hb is naturally occuring in the blood, and if so, its relationship to the O2 transport capacity and nitrosylated-heme content of red cells, we developed an analytical approach to assay the S-nitrosothiol and nitrosyl-heme content of erythrocytes (Table 2). […] Hb was then purified from red cells and assayed for RSNO and (FeII)NO content. Arterial blood contained significant levels of SNO-Hb, whereas levels were virtually undetectable in venous blood (Table 2). […] The arterial-venous distribution seen for SNO-Hb was reversed in the case of Hb(FeII)NO, which was detected in higher concentrations in partially deoxygenated (venous) erythrocytes (Table 2). […] However, levels of Hb(FeII)NO in vivo are typically too low to be detected (by EPR) and SNO-Hb is EPR-silent (i.e. it is not paramagnetic). Thus, photolysis-chemiluminesence represents an important technological advance, as it is the first methodology capable of making quantitative and functional assessments of NO binding to Hb under normal physiological conditions.
Blood was obtained from the left ventricle (arterial) and jugular vein (venous) of anesthetized Sprague-Dawley rats. […] In 24 rats, Hb samples were divided in two aliquots which were then treated or not treated with 10-fold excess HgCl2 over protein concentration as measured by the method of Bradford. […]

rabbit aortic ring [5] = assay: CysNOEE-treated human blood, rabbit aortic ring bioassay; settings: CysNOEE:heme 1:100 to 10:1; 21% and 1% oxygen
Experimental: S-nitrosocysteine ethyl ester (CysNOEE) was added to human whole blood to interact with the red blood cells. CysNOEE:Heme (see FIG. 22) is the molar ratio of CysNOEE to heme in hemoglobin contained in red blood cells, for CysNOEE incubated with blood for 5 minutes at room temperature. After these incubations at different CysNOEE:heme ratios (1:100, 1:10, 1:1 and 10:1; see FIG. 22), red blood cell membranes were isolated by lysis and centrifugation, and S-nitrosothiol (SNO) content of the isolated membranes was determined by photolysis chemiluminescence assay. The concentrations of SNO in the red blood cell membranes were plotted in FIG. 22 as membrane SNO. Bioactivity of red blood cells—from release of biologically active NO—was determined in a rabbit aortic ring bioassay under two different concentrations of oxygen, and the results are plotted in FIG. 22 as 21% oxygen, vasoactivity, and 1% oxygen, vasoactivity.

Q: With `N[C@@H](CCC(=O)N[C@@H](CS)C(=O)NCC(=O)O)C(=O)O` [Glutathione, glutathione] as the molecule, how does the “effect on red blood cell-mediated vasodilation” value (rabbit aortic ring [1]) read?
A: potentiates the bioactivity of red blood cell-mediated vasodilation

Q: With `CCON=O` [ethyl nitrite] as the molecule, how does the “duration of dilation of aortic ring by blood of treated patient” value (rabbit aortic ring [2]) read?
A: approximately 30 seconds

Q: And the “increase in SNO-Hb in blood” value ([3]; inhaled for 10 minutes, n=5)?
A: statistically significant

Q: And the “levels of iron nitrosylhemoglobin before and after treatment” value ([3]; inhaled for 10 minutes, n=5)?
A: no statistical difference

Q: And the “pulmonary vascular resistance and systemic oxygenation” value ([3]; inhaled)?
A: decreases in pulmonary vascular resistance and improved systemic oxygenation

Q: Which results are given for `CNC(=N)NCCC[C@H](N)C(=O)O` [L-NMMA, N^G-monomethyl-L-arginine]?
A: increase in blood pressure (Sprague-Dawley rat): about 20 mm Hg; depletion of SNO-Hb [4]: 82%; depletion of total Hb-NO [4]: 50±18%

Q: Which “vasoactivity of treated red blood cells” value (rabbit aortic ring [5]) does the source give for `CCOC(=O)[C@@H](N)CSN=O` [S-nitrosocysteine ethyl ester] here?
A: relaxes blood vessels, most effectively under ischemic conditions
